Results published in ChEMBL document CHEMBL5303304, “EUbOPEN Chemogenomics Library - IncuCyte” (2023).

How the values were obtained:
Assay type in all cases: toxicity, cell-based
[1] = system: Fibroblast; assay: Incucyte cell viability with human fibroblast; settings: 10 µM, compound concentration 10 uM
[2] = system: U2OS; assay: Incucyte cell viability with U2OS; settings: human, 10 µM, compound concentration 10 uM
[3] = system: HEK-293T; assay: Incucyte cell viability with HEK293T; settings: human, 10 µM, compound concentration 10 uM
Also: unitless GR value; below 1 slowed growth and below 0 cell loss.

SMILES	Growth Rate ([1]; 0 h, replicate number 1)	Growth Rate ([1]; 6 h, replicate number 2)	Growth Rate ([1]; 12 h, replicate number 1)	Growth Rate ([1]; 12 h, replicate number 2)	Growth Rate ([1]; 18 h, replicate number 1)	Growth Rate ([1]; 18 h, replicate number 2)	Growth Rate ([2]; 0 h, replicate number 1)	Growth Rate ([2]; 6 h, replicate number 1)	Growth Rate ([2]; 6 h, replicate number 2)	Growth Rate ([2]; 12 h, replicate number 2)	Growth Rate ([2]; 18 h, replicate number 2)	Growth Rate ([2]; 24 h, replicate number 2)	Growth Rate ([3]; 0 h, replicate number 1)	Growth Rate ([3]; 6 h, replicate number 2)	Growth Rate ([3]; 12 h, replicate number 2)	Growth Rate ([3]; 18 h, replicate number 2)	Growth Rate ([1]; 0 h, replicate number 2)	Growth Rate ([1]; 6 h, replicate number 1)	Growth Rate ([2]; 12 h, replicate number 1)	Growth Rate ([2]; 24 h, replicate number 1)	further results
O=C1c2c(Br)c(Br)c(Br)c(Br)c2C(=O)N1c1ncc[nH]1	0.94	-0.34	-0.93	0.46	0.49	1	0.58	0.7	0.25	0.88	0.8	0.85	0.6	0.37	0.57	0.74	–	–	–	–	Growth Rate ([3]; 0 h, replicate number 2): 0.63; Growth Rate ([3]; 24 h, replicate number 2): 0.78
C[C@H]1CN(C2COC2)CCN1c1ccc(Nc2cc(-c3ccnc(N4CCn5c(cc6c5CC(C)(C)C6)C4=O)c3CO)cn(C)c2=O)nc1 [FENEBRUTINIB]	-1	–	–	0.46	–	0.94	–	0.53	–	0.99	0.98	1	–	0.76	–	–	-0.77	0.44	0.69	0.81	Growth Rate ([3]; 6 h, replicate number 1): 0.81
CCc1cnn2c(NCc3ccc[n+]([O-])c3)cc(N3CCCCC3CCO)nc12 (centres undefined)	-0.96	0	0.25	-0.13	0.16	-0.04	-0.62	0.19	0.07	0.11	-0.08	–	-0.01	-0.72	-0.66	-0.53	0.67	0.11	-0.08	-0.23	Growth Rate ([1]; 24 h, replicate number 1): 0.25; Growth Rate ([1]; 24 h, replicate number 2): -0.14; Growth Rate ([2]; 0 h, replicate number 2): 0.91; Growth Rate ([2]; 18 h, replicate number 1): -0.15; Growth Rate ([3]; 6 h, replicate number 1): -0.39; Growth Rate ([3]; 12 h, replicate number 1): -0.26; Growth Rate ([3]; 18 h, replicate number 1): -0.2; Growth Rate ([3]; 24 h, replicate number 1): -0.14; Growth Rate ([3]; 24 h, replicate number 2): -0.41
CC1(C)CCC(CN2CCN(c3ccc(C(=O)NS(=O)(=O)c4ccc(NCC5CCOCC5)c([N+](=O)[O-])c4)c(Oc4cnc5[nH]ccc5c4)c3)CC2)=C(c2ccc(Cl)cc2)C1 [VENETOCLAX]	–	–	0.87	–	–	–	0.58	0.5	0.98	0.51	0.89	0.93	–	–	–	–	-0.85	0.5	0.81	0.81	Growth Rate ([2]; 0 h, replicate number 2): -0.65; Growth Rate ([2]; 18 h, replicate number 1): 0.78; Growth Rate ([3]; 0 h, replicate number 2): 0.6; Growth Rate ([3]; 6 h, replicate number 1): 0.01; Growth Rate ([3]; 12 h, replicate number 1): 0.58; Growth Rate ([3]; 18 h, replicate number 1): 0.66; Growth Rate ([3]; 24 h, replicate number 1): 0.87
CC(=O)O.NCCCc1c(C(=O)O)[nH]c2ccc(C(=O)Nc3ccccc3)cc12	0.6	0.33	–	0.82	0.95	0.71	0.53	0.76	–	–	–	–	0.19	–	0.96	0.93	–	0.95	0.87	0.93	Growth Rate ([1]; 24 h, replicate number 2): 0.77; Growth Rate ([2]; 18 h, replicate number 1): 0.92; Growth Rate ([3]; 0 h, replicate number 2): 0.53
CC(Oc1cc(-c2cnn(C3CCNCC3)c2)cnc1N)c1c(Cl)ccc(F)c1Cl (centres undefined)	–	-0.95	-0.94	-0.64	-0.67	-0.52	-1	–	–	0.65	0.45	0.5	–	-0.51	-0.35	-0.18	–	–	0.53	0.39	Growth Rate ([1]; 24 h, replicate number 1): -0.22; Growth Rate ([1]; 24 h, replicate number 2): -0.44; Growth Rate ([2]; 18 h, replicate number 1): 0.4; Growth Rate ([3]; 6 h, replicate number 1): -0.85; Growth Rate ([3]; 12 h, replicate number 1): -0.78; Growth Rate ([3]; 18 h, replicate number 1): -0.49; Growth Rate ([3]; 24 h, replicate number 1): -0.28; Growth Rate ([3]; 24 h, replicate number 2): -0.11
Cc1cccc(-c2nn(C(=S)Nc3ccccc3)cc2-c2ccnc3ccccc23)n1	–	–	-1	–	–	–	–	0.88	0.81	–	0.98	0.88	0.78	–	–	–	-1	1	–	–	Growth Rate ([2]; 0 h, replicate number 2): -0.94
